Test results as given in patent publication US20230407243A1, “GENETIC PLATFORM TO INVESTIGATE THE FUNCTIONS OF BACTERIAL DRUG EFFLUX PUMPS” (priority 2022, published 2023).
Values after ≈ are worked out from the molar mass of the structure shown.

Key:
[1] = system: EKO-35-Pore expressing the P. aeruginosa pump mexCD; experiment: Checkerboard synergy (FICI), porinated strain; type: cell-based, Escherichia coli
How it was run: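 Read-out was OD600, the MIC being the lowest concentration without growth in a CLSI checkerboard run in MHB II. Each drug's MIC in combination was divided by its MIC alone and the two ratios summed as FICI. Cut-offs: <0.5 synergy, >0.5–1.0 additive, >1.0–2.0 indifferent, >2.0 antagonism.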

[2] = system: ΔtolC gyrB (pCA24N); type: cell-based, Escherichia coli
[3] = system: K-12 gyrB (pCA24N); experiment: MIC of strains harboring ASKA plasmids; type: cell-based; details: Escherichia coli, 0.1 mM IPTG
[4] = system: ΔtolC wcaC (pCA24N); experiment: microbe, parasite or virus in culture
Experimental: (§1) To enable comparison between efflux production in different genetic backgrounds, each efflux pump-encoding gene was also integrated into the genome of the wild-type BW25113 strain, the single gene deletion mutant from the Keio Collection, and EKO-35. Strains of interest were propagated on LB agar at 37° C. Cell inoculum was prepared using the colony resuspension method and applied to a 96-well well plate (VWR) in technical duplicate, and the minimum inhibitory concentrations were determined according to Clinical & Laboratory Standards Institute (CLSI) protocols in MHB II (Patel J. B. et al, 2015). The plates were incubated for 18 h (Multitron Shaker, Infors HT) at 37° C. with aeration at 900 rpm. The plates were equilibrated to room temperature before the OD600 nm was measured using a BioTek Synergy H1 microplate reader. For interplay profiling, blank subtracted OD600 nm values >0.1 were considered to represent growth.
(§2) To assess fitness of EKO-35 expressing wild-type copies of the genes identified to harbor nonsynonymous mutations, Inventors obtained clones from the E. coli ASKA library (Kitagawa, M. et al., 2005) with the rspA, tufA, pitA, wcaC, gyrB, and yjfC genes carried on plasmids, with gene expression under the control of an IPTG-inducible promoter. The ASKA plasmids were verified using Sanger sequencing and gene expression was induced with 0.1 mM IPTG. In the wild-type E. coli K-12 strain, the plasmids were maintained with 25 μg/mL chloramphenicol.

[5] = system: K-12 wcaC (pCA24N); experiment: microbe, parasite or virus in culture; details: Escherichia coli, 0.1 mM IPTG
Experimental: as §1, §2

[6] = EKO-35 mexCD Pore, NMP + antibiotic
[7] = EKO-35 mexCD Pore, PAβN + antibiotic
[8] = strain EKO-35 mexCD Pore, NMP + antibiotic

Compound: CC[C@H]1OC(=O)[C@H](C)[C@@H](O[C@H]2C[C@@](C)(OC)[C@@H](O)[C@H](C)O2)[C@H](C)[C@@H](O[C@@H]2O[C@H](C)C[C@H](N(C)C)[C@H]2O)[C@](C)(O)C[C@@H](C)C(=O)[C@H](C)[C@@H](O)[C@]1(C)O [erythromycin]
- Effect [1, 6]: Additive
- FICI [1, 6]: 0.565
- Effect [1, 7]: Synergistic
- FICI [1, 7]: 0.385
- MICb Alone ([1]; EKO-35 mexCD Pore, antibiotic alone (PAβN checkerboard)): 0.5 µg/mL
- MICb Combined ([1]; EKO-35 mexCD Pore, antibiotic in combination with PAβN): 0.13 µg/mL
- Effect [1, 8]: Additive (additive (FICI >0.5-1.0))
- FICI [1, 8]: 0.565
- MICb Alone ([1]; strain EKO-35 mexCD Pore, antibiotic alone): 2 µg/mL
- MICb Combined ([1]; strain EKO-35 mexCD Pore, antibiotic in combination with NMP): 0.13 µg/mL

Compound: CO[C@@H]1[C@@H](OC(N)=O)[C@@H](O)[C@H](Oc2ccc3c(O)c(NC(=O)c4ccc(O)c(CC=C(C)C)c4)c(=O)oc3c2C)OC1(C)C [novobiocin]
- MIC [2]: 12.5 µg/mL (≈ 20.4 µM)
- MIC ([3]; Chlor + (25 μg/mL)): 100 µg/mL
- MIC ([3]; Chlor −): 400 µg/mL

Compound: COc1cc(Cc2cnc(N)nc2N)cc(OC)c1OC [trimethoprim]
- MIC ([4]; Escherichia coli): 0.195 µg/mL
- MIC ([4]; ΔtolC wcaC, Chlor +, 0.1 mM IPTG): 0.195 µg/mL
- MIC ([5]; Chlor + (25 μg/mL)): 0.195 µg/mL
- MIC ([5]; Chlor −): 1.56 µg/mL

Compound: phenylalanine-arginine-β-naphthylamide [PAβN]
- PABN MICa Alone ([1]; EKO-35 mexCD Pore, PAβN alone, one value per checkerboard): 64 µg/mL
- PABN MICa Combined ([1]; EKO-35 mexCD Pore, with Ciprofloxacin): 16 µg/mL
- PABN MICa Combined ([1]; EKO-35 mexCD Pore, with Erythromycin): 8 µg/mL
